Test results reported in ChEMBL document CHEMBL4715914, “Chemical validation of a druggable site on Hsp27/HSPB1 using in silico solvent mapping and biophysical methods” (Bioorg Med Chem, 2021).
Calls of active or inactive are those of the source. The rule behind the calls is not given here.

Experiments:
[1] = molecular target: Heat shock protein beta-1 (Homo sapiens, UniProt P04792); experiment: Binding affinity to HSP27 (79 to 176 residues) (unknown origin) expressed in Escherichia coli BL21 (DE3) cells by HSQC NMR analysis; conditions: for Kd: read-out: Kd(app)
Sequence of Heat shock protein beta-1 (P04792 whole entry, the tested form may be a part): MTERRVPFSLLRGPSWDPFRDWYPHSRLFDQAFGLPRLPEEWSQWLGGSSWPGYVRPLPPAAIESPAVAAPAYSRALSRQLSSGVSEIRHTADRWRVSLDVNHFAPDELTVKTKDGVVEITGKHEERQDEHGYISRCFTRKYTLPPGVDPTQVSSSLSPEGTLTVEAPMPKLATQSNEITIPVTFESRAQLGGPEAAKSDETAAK

[2] = Binding affinity to HSP27 T61L mutant (79 to 176 residues) (unknown origin) expressed in Escherichia coli BL21 (DE3) cells by HSQC NMR analysis; set-up: species or system Homo sapiens; conditions: read-out: Kd(app)
[3] = Binding affinity to HSP27 I56A mutant (79 to 176 residues) (unknown origin) expressed in Escherichia coli BL21 (DE3) cells by HSQC NMR analysis; set-up: species or system Homo sapiens; conditions: read-out: Kd(app)
[4] = Binding affinity to HSP27 H46A mutant (79 to 176 residues) (unknown origin) expressed in Escherichia coli BL21 (DE3) cells by HSQC NMR analysis; set-up: species or system Homo sapiens; conditions: read-out: Kd(app)
[5] = Binding affinity to HSP27 L21A mutant (79 to 176 residues) (unknown origin) expressed in Escherichia coli BL21 (DE3) cells by HSQC NMR analysis; set-up: species or system Homo sapiens; conditions: read-out: Kd(app)
[6] = Binding affinity to HSP27 C59A mutant (79 to 176 residues) (unknown origin) expressed in Escherichia coli BL21 (DE3) cells by HSQC NMR analysis; set-up: species or system Homo sapiens; conditions: read-out: Kd(app)
[7] = Binding affinity to HSP27 V23A mutant (79 to 176 residues) (unknown origin) expressed in Escherichia coli BL21 (DE3) cells by HSQC NMR analysis; set-up: species or system Homo sapiens; conditions: read-out: Kd(app)

In the case of `Nc1cccnc1Oc1ccc(F)cc1F`, the Kd [1] is reported as > 1000 µM.
With `O=[N+]([O-])c1cccnc1Oc1ccc(F)cc1F` the Kd [1] was 177 µM.
In the case of `O=[N+]([O-])c1cc(Oc2ccc(F)cc2F)ccc1Oc1ccc(F)cc1F`, the “Kd(app)” value [1] is reported as “inactive”.
In the case of `O=C(Oc1ccc(F)cc1F)c1ccc([N+](=O)[O-])cc1`, the “Kd(app)” value [1] is reported as “inactive”.
`O=[N+]([O-])c1ccc(Oc2ccc(F)cc2F)c([N+](=O)[O-])c1` gave a Kd [2] of 32 µM, a Kd [3] of 63 µM and a Kd [4] of 240 µM. The Kd [5] was 42 µM, the Kd [6] was 67 µM and the Kd [7] was 69 µM.
For `O=[N+]([O-])c1cccnc1Oc1ccc(I)cc1`, the “Kd(app)” value [1] was “inactive”.
